Data set [1] has as its target T1, PSMA (Homo sapiens, UniProt Q04609).
T1 construct: endogenous in cells; host or cells: LNCaP cell lysate
The settings on record: from Chen et al. 2008 and 2011; read-out: Ki value, PSMA (for comparison); cited from earlier work.

In data set [2] the target is T1, PSMA. Nature of the data set: NAALADase assay (fluorescence-based Amplex Red glutamic acid assay), PSMA inhibition. It counts as biochemical. To be noted: for Ki: LNCaP cell lysates, 4 μM NAAG, Cheng-Prusoff conversion. As for the experimental part: NAALADase Assay (Kozikowski et al., J. Med. Chem. 2004). The binding affinities of compounds YC-88, YC-71 and YC-XY-01 were tested with an established protocol. Briefly, cell lysates of Lymph Node Carcinoma of the Prostate (LNCaP) cell extracts (25 μL) were incubated with the inhibitor (12.5 μL) in the presence of 4 μM N-acetylaspartylglutamate (NAAG) (12.5 μL) at 37° C. for 120 min. The amount of the glutamate released by NAAG hydrolysis was measured by incubating with a working solution (50 μL) of the Amplex Red Glutamic Acid Kit (Life Technologies, Grand Island, N.Y.) at 37° C. for 60 min. Fluorescence was measured with a VICTOR^3V multilabel plate reader (Perkin Elmer Inc., Waltham, Mass.) with excitation at 490 nm and emission at 642 nm. Inhibition curves were determined using semi-log plots and IC50 values were determined at the concentration at which enzyme activity was inhibited by 50%. Assays were performed in triplicate with the entire inhibition study being repeated at least once to confirm affinity and mode of inhibition. Enzyme inhibitory constants (Ki values) were generated using the Cheng-Prusoff conversion. […]. Data analysis was performed using GraphPad Prism version 4.00 for Windows (GraphPad Software, San Diego, Calif.).
PSMA Inhibition Assay. The PSMA binding affinity of YC-88 were determined using a modification of the Amplex Red glutamic acid assay (Chen et al., Biochem. Biophys. Res. Commun. 2009).

Data set [3] can be described thus: Lipophilicity, octanol-water partition coefficient by shake-flask method. Type of data set: physicochemical. The settings on record: pH 7.4. How it is done: Lipophilicity Determination. Octanol-water partition coefficients [log P (pH 7.4) values] were determined according to a literature procedure (Banerjee et al., J. Med. Chem. 2010). […] After vigorously shaking the mixture, it was centrifuged at 3,000 rpm for 5 min. Aliquots were removed from the two phases, and the radioactivity was measured in a 1282 Compugamma CS γ-counter, (LKB, Wallac, Turku, Finland).
Lipophilicity. Octanol-water partition coefficient (log P) values were measured by the shake-flask method using 1-octanol and PBS (pH 7.4). The log P of [^18F]YC-88 at pH 7.4 was −3.91.

Data set [4] can be described thus: Radiation dosimetry: kidney biological clearance half-life and AUC from % ID/g data. Type of data set: in vivo, NOD-SCID mice. The settings on record: for AUC in kidneys / Biological half-life in kidneys: single exponential fit of kidney % ID/g. An excerpt:
Radiation Dosimetry. […] The simulation analysis and modeling software package SAAM II (The Epsilon Group, Charlottesville, Va.) was used to perform the fits.

Structures are written as SMILES. Entries after “also recorded” stand apart in the source; their conditions may differ. Read-outs that look alike come from different tables or passages of the source.

Here are results for seven compounds from patent US11078166B2, “Triazole conjugated ureas, thioureas, carbamates, and reversed carbamates for PSMA-targeted imaging agents and uses thereof” (THE JOHNS HOPKINS UNIVERSITY, priority 2015, dated 2021).

T1 sequence (Q04609 whole entry): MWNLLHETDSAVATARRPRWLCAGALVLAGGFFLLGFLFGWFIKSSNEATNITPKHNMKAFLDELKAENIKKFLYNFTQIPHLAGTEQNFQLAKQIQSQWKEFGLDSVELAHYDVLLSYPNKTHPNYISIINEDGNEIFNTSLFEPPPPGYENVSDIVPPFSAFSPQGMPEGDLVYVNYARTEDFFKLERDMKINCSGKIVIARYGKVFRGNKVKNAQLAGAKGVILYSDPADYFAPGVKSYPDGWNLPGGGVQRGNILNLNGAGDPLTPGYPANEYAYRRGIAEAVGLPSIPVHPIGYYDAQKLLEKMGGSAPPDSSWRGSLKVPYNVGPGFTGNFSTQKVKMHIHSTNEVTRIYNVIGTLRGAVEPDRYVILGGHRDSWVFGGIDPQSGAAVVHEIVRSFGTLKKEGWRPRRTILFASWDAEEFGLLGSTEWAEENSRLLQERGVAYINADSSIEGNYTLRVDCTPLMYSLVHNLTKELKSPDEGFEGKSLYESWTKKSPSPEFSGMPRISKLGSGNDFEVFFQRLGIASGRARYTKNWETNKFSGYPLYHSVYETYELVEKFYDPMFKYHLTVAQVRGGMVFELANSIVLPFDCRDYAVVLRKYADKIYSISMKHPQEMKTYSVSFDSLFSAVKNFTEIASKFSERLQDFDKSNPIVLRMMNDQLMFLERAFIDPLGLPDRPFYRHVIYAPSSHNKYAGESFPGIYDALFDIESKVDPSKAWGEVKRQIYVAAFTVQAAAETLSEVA

Broadly, the Ki is a measure of affinity in units of concentration, obtained from inhibition or displacement. Regarding `O=C(O)CC[C@H](NC(=O)N[C@@H](CSCc1ccc(F)cc1)C(=O)O)C(=O)O` [DCFBC], the Ki at PSMA [1] was 0.44 nM.

As for `O=C(O)CCC(NC(=O)NC(CCCCNC(=O)c1ccc(F)cc1)C(=O)O)C(=O)O` (stereo not shown) [DCFBzL], at PSMA [1], the Ki is 0.19 nM.

As to `O=C(O)CCC(NC(=O)NC(CCCCNC(=O)CCCCCCC(=O)NC(CCCCNC(=O)CCc1cn(CCF)nn1)C(=O)O)C(=O)O)C(=O)O` (stereo not shown) [YC-71], on PSMA [2], the “Binding affinity to PSMA (in words)” value was “high binding affinity to PSMA” and affinity was put at a Ki of 0.6 nM.

On to `O=C(O)CCC(NC(=O)NC(CCCCNC(=O)CCc1cn(CCF)nn1)C(=O)O)C(=O)O` (stereo not shown) [YC-88, 2-[3-(1-Carboxy-5-{3-[1-(2-fluoroethyl)-1H-1,2,3-triazol-yl]propanamido}pentyl)ureido]pentanedioic Acid], for which, at PSMA [2], the “Binding affinity to PSMA (in words)” value is “high affinity for PSMA; also recorded: high binding affinity to PSMA” and the Ki was 12.9 nM.

As for `O=C(O)CC[C@H](OC(=O)N[C@@H](CCCCNC(=O)CCc1cn(CCF)nn1)C(=O)O)C(=O)O` [YC-XY-01, (S)-2-((((S)-1-carboxy-5-(3-(1-(2-fluoroethyl)-1H-1,2,3-triazol-4-yl)propanamido)pentyl)carbamoyl)oxy)pentanedioic acid], at PSMA [2], the “Binding affinity to PSMA (in words)” value is listed as “high binding affinity to PSMA” and the Ki was found to be 473 nM.

Regarding `O=C(O)CCC(NC(=O)NC(CCCCNC(=O)c1ccc([18F])nc1)C(=O)O)C(=O)O` (stereo not shown) [[^18F]DCFPyL, 2-(3-{1-carboxy-5-[(6-[^18F]fluoropyridine-3-carbonyl)-amino]-pentyl}-ureido)-pentanedioic acid, reference compound], the “log P (octanol-water partition coefficient)” value in data set [3] (1-octanol and PBS) is −3.27. Further, in data set [4], the AUC in kidneys is 340.74 % ID/g-h and the “Biological half-life in kidneys” value is 1.20 h.

A word on the logP: it is the decadic logarithm of the partition coefficient of the neutral form, usually between octanol and water. A lower logP goes with lower lipophilicity. On to `O=C(O)CC[C@H](NC(=O)N[C@@H](CCCCNC(=O)CCc1cn(CC[18F])nn1)C(=O)O)C(=O)O` [[^18F]YC-88, 2-[3-(1-carboxy-5-{3-[1-(2-[^18F]fluoroethyl)-1H-1,2,3-triazol-yl]propanamido}pentyl)ureido]-pentanedioic acid], for which, in data set [3], the logP was -3.91. In addition, in data set [4] (mouse, in vivo), the “AUC ratio (agent/YC-88) in kidneys” value worked out at 1 and the “Kidney absorbed dose, decrease compared to [^18F]DCFPyL” value is recorded as roughly 5 fold. Besides, in data set [4], the AUC in kidneys is 70.7 % ID/g-h and the “Biological half-life in kidneys” value is listed as 1.52 h.
